Results on 21 molecules are retold here after ChEMBL document CHEMBL6153135, “Rational Design of a Potent, Selective, and Metabolically Stable CDK9 Inhibitor to Counteract Osimertinib Resistance through Mcl-1 Suppression and Enhanced BRD4 Co-Targeting” (J Med Chem, 2025).

The subject of data set [1] is Osimertinib-resistant HCC827 cell. The data set can be described thus: Antitumor activity against human Osimertinib-resistant HCC827 cells xenografted in BALB-c nude mouse assessed as tumor growth inhibition at 30 mg/kg, ip. The class given is functional, organism-based.
The subject of another data set is HCC827. The data set can be described thus: Anti-proliferative activity against human HCC827 cells assessed as cell inhibition measured after 72 hrs by MTT assay. The conditions noted are these: HCC827, 72 h. The class given is functional, cell-based.
Data set [2] can be described thus: Toxicity in BALB-c mouse xenografted with human NCI-H1975 cells assessed as decrease in body weight at 30 mg/kg, ip. It is filed as organism-based. The conditions noted are these: in vivo.
Data set [3] can be described thus: Anti-proliferative activity against human Osimertinib-resistant HCC827 cells assessed as cell inhibition measured after 72 hrs by MTT assay. The class given is functional, cell-based.
A short description of data set [4]: Toxicity in BALB-c mouse xenografted with human Osimertinib-resistant HCC827 cells assessed as decrease in body weight at 30 mg/kg, ip. It is filed as organism-based. The conditions noted are these: in vivo.
Data set [5] has as its system NCI-H1975. The data set can be described thus: Antitumor activity against human NCI-H1975 cells xenografted in BALB-c nude mouse assessed as tumor growth inhibition at 30 mg/kg, ip. It is filed as functional, organism-based.
For data set [6], the system named is NCI-H1975. Kind of data set: Anti-proliferative activity against human NCI-H1975 cells assessed as cell inhibition measured after 72 hrs by MTT assay. The class given is functional, cell-based. The conditions noted are these: NCI-H1975, 72 h.
Data set [7] relates to Osimertinib-resistant NCI-H1975 cell. Kind of data set: Anti-proliferative activity against human Osimertinib-resistant NCI-H1975 cells assessed as cell inhibition measured after 72 hrs by MTT assay. It is filed as functional, cell-based.
The target of another data set is CDK2/Cyclin A2 (Homo sapiens, UniProt P24941). Kind of data set: Inhibition of CDK2/Cyclin A2 (unknown origin) preincubated for 10 mins followed by substrate/ATP measured after 60 mins by ADP-Glo assay. It is filed as protein-complex assay.
The next data set deals with CDK9/cyclin T1 (Homo sapiens, UniProt P50750). The data set can be described thus: Inhibition of CDK9/cyclin T1 (unknown origin) preincubated for 10 mins followed by substrate/ATP measured after 60 mins by ADP-Glo assay. It is filed as protein-complex assay.
Sequence of CDK9/cyclin T1 (O60563 whole entry): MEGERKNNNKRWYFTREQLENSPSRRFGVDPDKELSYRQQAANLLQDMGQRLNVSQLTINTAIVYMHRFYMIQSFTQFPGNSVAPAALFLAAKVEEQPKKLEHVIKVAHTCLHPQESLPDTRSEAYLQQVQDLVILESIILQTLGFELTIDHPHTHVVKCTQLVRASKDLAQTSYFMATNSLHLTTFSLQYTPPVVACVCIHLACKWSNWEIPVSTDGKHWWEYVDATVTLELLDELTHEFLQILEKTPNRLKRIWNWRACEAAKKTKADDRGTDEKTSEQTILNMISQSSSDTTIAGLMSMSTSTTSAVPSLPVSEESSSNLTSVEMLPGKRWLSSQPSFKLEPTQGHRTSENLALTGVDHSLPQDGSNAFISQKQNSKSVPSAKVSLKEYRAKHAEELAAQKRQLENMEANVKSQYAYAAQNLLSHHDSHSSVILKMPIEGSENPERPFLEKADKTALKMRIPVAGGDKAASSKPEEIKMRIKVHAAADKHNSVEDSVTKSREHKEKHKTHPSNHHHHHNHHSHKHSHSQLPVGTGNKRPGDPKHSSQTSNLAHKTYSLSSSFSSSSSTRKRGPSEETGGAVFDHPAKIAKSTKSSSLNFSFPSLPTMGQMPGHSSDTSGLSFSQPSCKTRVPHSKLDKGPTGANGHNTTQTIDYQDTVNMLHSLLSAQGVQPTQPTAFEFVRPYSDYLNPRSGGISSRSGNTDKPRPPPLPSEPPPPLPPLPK
Sequence of CDK9/cyclin T1 (P50750 whole entry): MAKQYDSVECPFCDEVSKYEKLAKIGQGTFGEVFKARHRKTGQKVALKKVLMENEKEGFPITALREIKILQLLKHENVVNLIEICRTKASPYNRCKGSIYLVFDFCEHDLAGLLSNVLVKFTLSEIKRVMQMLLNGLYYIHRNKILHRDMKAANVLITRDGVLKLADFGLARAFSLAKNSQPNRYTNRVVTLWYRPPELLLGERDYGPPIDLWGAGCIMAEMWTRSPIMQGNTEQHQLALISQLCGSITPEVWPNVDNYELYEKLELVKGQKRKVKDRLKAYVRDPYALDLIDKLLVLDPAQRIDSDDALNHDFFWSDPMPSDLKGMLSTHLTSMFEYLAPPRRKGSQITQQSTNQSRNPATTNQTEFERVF
The nature of data set [8]: Solubility of compound in PBS at pH 6.0 incubated for 2 hrs by HPLC analysis. It is filed as physicochemical.
A short description of data set [9]: Metabolic stability in human liver microsomes assessed as half life measured for 5 to 60 mins by LC-MS/MS analysis. The class given is ADME, Microsome. The conditions noted are these: time 5-60 min.
Data set [10] can be described thus: Metabolic stability in rat liver microsomes assessed as half life measured for 5 to 60 mins by LC-MS/MS analysis. The class given is ADME, Microsome. The conditions noted are these: time 5-60 min.
In data set [11] the test system is Osimertinib-resistant NCI-H1975 cell. The data set can be described thus: Induction of apoptosis in human Osimertinib-resistant NCI-H1975 cells assessed as late apoptotic cells at 0.5 uM incubated for 16 hrs by Annexin V-FITC/PI staining based flow cytometry (reference value: 5.92 %). The class given is functional.
The next data set has as its system 16HBE14o-. The data set can be described thus: Anti-proliferative activity against human 16-HBE cells assessed as cell inhibition measured after 72 hrs by MTT assay. It is filed as functional, cell-based.
Another data set concerns NCI-H1299. Kind of data set: Anti-proliferative activity against human NCI-H1299 cells assessed as cell inhibition measured after 72 hrs by MTT assay. It is filed as functional, cell-based. The conditions noted are these: NCI-H1299, 72 h.
The test system of another data set is NCI-H596. The data set can be described thus: Anti-proliferative activity against human NCI-H596 cells assessed as cell inhibition measured after 72 hrs by MTT assay. The class given is functional, cell-based. The conditions noted are these: NCI-H596, 72 h.
The test system of data set [12] is Osimertinib-resistant NCI-H1975 cell. The data set can be described thus: Induction of apoptosis in human Osimertinib-resistant NCI-H1975 cells assessed as early apoptotic cells at 0.5 uM incubated for 16 hrs by Annexin V-FITC/PI staining based flow cytometry (reference value: 4.39 %). The class given is functional.
Data set [13] has the same test system. Kind of data set: Induction of apoptosis in human Osimertinib-resistant NCI-H1975 cells assessed as necrotic cells at 0.5 uM incubated for 16 hrs by Annexin V-FITC/PI staining based flow cytometry (reference value: 0.33 %). The class given is functional.
The subject of a further data set is PC-9. Kind of data set: Anti-proliferative activity against human PC-9 cells assessed as cell inhibition measured after 72 hrs by MTT assay. It is filed as functional, cell-based. The conditions noted are these: PC-9, 72 h.
The test system of data set [14] is Osimertinib-resistant NCI-H1975 cell. Kind of data set: Induction of apoptosis in human Osimertinib-resistant NCI-H1975 cells assessed as viable cells at 0.5 uM incubated for 16 hrs by Annexin V-FITC/PI staining based flow cytometry (reference value: 89.4 %). It is filed as functional. The conditions noted are these: read-out: Activity.

Converted amounts (≈) assume the structure as drawn. The source made the active and inactive calls. The calls are words filed in the database; no cut-off is given here.

With `Cc1sc2c(c1C)C(c1ccc(Cl)cc1)=N[C@@H](CC(=O)OC(C)(C)C)c1nnc(C)n1-2`, the inhibition result (in data set [1]; in the data set with NCI-H1975 [5]) was “inactive” throughout. The concentration for half-maximal inhibition (IC50) stood at 9740 nM in the data set on HCC827, 8910 nM in data set [3], 3970 nM in the data set on NCI-H1975 [6] and 2290 nM in data set [7]. Besides, the Activity result in [2] and in [4] was “Non-toxic” each time.
Turning to `O=C(NC1CCN(C2CC2)CC1)c1ccc2cc1OCCCCCCOc1cncc(c1)-c1nc(ncc1F)N2`, the concentration for half-maximal inhibition (IC50) against CDK2/Cyclin A2 amounted to 28.3 nM; on CDK9/cyclin T1, 1.4 nM.
In the case of `O=C(NC1CCN(C2CCOC2)CC1)c1ccc2cc1OCCCCCCn1cc(cn1)-c1nc(ncc1F)N2` (stereo not given), the IC50 on CDK2/Cyclin A2 was 14.2 nM; in [3] it was 80 nM; against CDK9/cyclin T1, 1.3 nM; with NCI-H1975 [6], 90 nM. The molecule further gave a solubility at 2 h in [8] of 35 µg/mL (≈ 63.7 µM).
As for `O=C(NC1CCN(C2CCOC2)CC1)c1ccc2cc1OCCCCCCOc1cncc(c1)-c1nc(ncc1F)N2` (stereo not given), the IC50 at CDK2/Cyclin A2 amounted to 18.1 nM; in data set [3], 40 nM; against CDK9/cyclin T1, 1.1 nM; in the data set on NCI-H1975 [6] it was 60 nM. In data set [8], this molecule came in with a solubility at 2 h of 58 µg/mL (≈ 101 µM).
Consider `O=C(NC1CCN(C2CCOC2)CC1)c1ccc2cc1OCCCCCCOc1cc(ccc1F)-c1ncnc(n1)N2` (stereo not given), for which the IC50 on CDK2/Cyclin A2 turned out to be 286 nM; in data set [3] it was 350 nM; against CDK9/cyclin T1, 6.1 nM; in the data set with NCI-H1975 [6], 110 nM. The solubility at 2 h in data set [8] is 27 µg/mL (≈ 46.8 µM).
Take `CCN1CCC(NC(=O)c2ccc3cc2OCCCCCCOc2cc(ccc2F)-c2nc(ncc2F)N3)CC1`: the half-life in data set [9] amounted to 257 min; in data set [10], 5.4 min. Also, the IC50 against CDK2/Cyclin A2 turned out to be 68.8 nM; at CDK9/cyclin T1 it was 2.3 nM; in the data set with NCI-H1975 [6] it was 280 nM; in [7] it was 280 nM.
Turning to `O=C(CN1CCOCC1)NCc1ccc2cc1OCCCCCCOc1cc(ccc1F)-c1nc(ncc1F)N2`, the half-inhibitory concentration (IC50) at CDK2/Cyclin A2 is 200 nM; against CDK9/cyclin T1, 5.13 nM; in the data set on NCI-H1975 [6] it was 590 nM. This molecule yielded a solubility at 2 h in data set [8] of 20 µg/mL (≈ 36.1 µM).
For the molecule `O=C(NC1CCN(C2CC2)CC1)c1ccc2cc1OCCCCCCOc1cc(ccc1F)-c1nc(ncc1F)N2`, the half-life in [9] amounted to 21.4 min; in [10] it was 64.7 min. Moreover, the half-maximal inhibitory concentration (IC50) against CDK2/Cyclin A2 worked out at 370 nM; in data set [3], 210 nM; on CDK9/cyclin T1 it was 3.4 nM; in the data set with NCI-H1975 [6], 320 nM; in data set [7], 230 nM.
With `O=C(NCCN1CCOCC1)c1ccc2cc1OCCCCCCOc1cncc(c1)-c1nc(ncc1F)N2`, the 50% inhibitory concentration (IC50) at CDK2/Cyclin A2 was found to be 22.2 nM; on CDK9/cyclin T1, 1.5 nM; in the data set on NCI-H1975 [6], 70 nM. Moreover, in data set [8], the solubility at 2 h came to 39 µg/mL (≈ 72.7 µM).
Consider `O=C(NCCN1CCCC1)c1ccc2cc1OCCCCCCOc1cc(ccc1F)-c1nc(ncc1F)N2`, for which the half-life in data set [9] amounted to 37.7 min; in [10], 36.7 min. In addition, the IC50 stood at 18.3 nM against CDK2/Cyclin A2; 140 nM in data set [3]; 1.7 nM at CDK9/cyclin T1; 290 nM in the data set with NCI-H1975 [6]; 100 nM in data set [7].
On to `CN1CCC(NC(=O)c2ccc3cc2OCCCCCCOc2cc(ccc2F)-c2nc(ncc2F)N3)CC1`, for which the values for the half-life in data set [9] and in data set [10] were 66.6 min and 42.5 min, respectively.
Turning to `O=C(NC1CCN(C2CCOC2)CC1)c1ccc2cc1OCCCCCCOc1cc(ccc1F)-c1nc(ncc1F)N2` (stereo not given), the figures for the half-life in data set [9] and in data set [10] were 55 min and 25.2 min, respectively. In addition, the IC50 against CDK2/Cyclin A2 worked out at 150 nM; in [3], 300 nM; at CDK9/cyclin T1 it was 1 nM; in the data set with NCI-H1975 [6] it was 380 nM; in data set [7] it was 110 nM.
`O=C(NC1CCN(C2CCOCC2)CC1)c1ccc2cc1OCCCCCCOc1cc(ccc1F)-c1nc(ncc1F)N2`: the half-life in data set [9] stood at 301 min.
For the molecule `CN1CCC(CNC(=O)c2ccc3cc2OCCCCCCOc2cc(ccc2F)-c2nc(ncc2F)N3)CC1`, the half-life in data set [9] was found to be 112 min; in data set [10] it was 12.4 min. Further, the values for the half-inhibitory concentration (IC50) (at CDK2/Cyclin A2; against CDK9/cyclin T1; in data set [7]) were 38.9 nM, 3.1 nM and 250 nM, respectively.
Consider `COc1cc(F)ccc1-c1cc(Nc2cc(CS(C)(=N)=O)ccn2)ncc1F` (stereo not given) [ENITOCICLIB], for which the IC50 was 130 nM in the data set with HCC827; 130 nM in data set [3]; 410 nM with 16HBE14o-; 130 nM in the data set on NCI-H1299; 90 nM in the data set on NCI-H596; 140 nM in the data set with NCI-H1975 [6]. Besides, the IC50 (with PC-9; in [7]) was 120 nM in each case. For the same molecule, the Activity amounted to 10.1% in data set [11], 11.8% in data set [12] and 1.26% in [13]. Moreover, the viability at 0.5 µM in data set [14] was 76.9%.
Take `CC(=O)N1CCC(NC(=O)c2ccc3cc2OCCCCCCOc2cncc(c2)-c2nc(ncc2F)N3)CC1`: the half-inhibitory concentration (IC50) against CDK2/Cyclin A2 is 20.6 nM; in data set [3], 40 nM; against CDK9/cyclin T1 it was 1 nM.
On to `COC[C@@H](C)NC(=O)c1ccc2cc1OCCCCCCOc1cc(ccc1F)-c1nc(ncc1F)N2`, for which the half-life in data set [9] was found to be 11.3 min; in data set [10], 123 min. Besides, the half-maximal inhibitory concentration (IC50) against CDK2/Cyclin A2 is more than 500 nM; in data set [3], 280 nM; at CDK9/cyclin T1, 2.5 nM; in the data set with NCI-H1975 [6] it was 300 nM; in data set [7], 220 nM.
In the case of `CN1CCN(CCNC(=O)c2ccc3cc2OCCCCCCOc2cc(ccc2F)-c2nc(ncc2F)N3)CC1`, the half-life in [9] is 13.2 min; in [10] it was 9.5 min.
Consider `CC(C)N1CCC(NC(=O)c2ccc3cc2OCCCCCCOc2cc(ccc2F)-c2nc(ncc2F)N3)CC1`, for which the half-life amounted to 161 min in data set [9] and 8.6 min in data set [10]. Besides, the concentration for half-maximal inhibition (IC50) against CDK2/Cyclin A2 is 67 nM; against CDK9/cyclin T1 it was 2.3 nM; in the data set with NCI-H1975 [6] it was 370 nM; in [7] it was 360 nM.
On to `O=C(NC1CCN(C2CC2)CC1)c1ccc2cc1OCCCCCCn1cc(cn1)-c1nc(ncc1F)N2`, for which the values for the IC50 on CDK2/Cyclin A2 and against CDK9/cyclin T1 were 11.4 nM and 1 nM, respectively.
Regarding `O=C(NCCN1CCOCC1)c1ccc2cc1OCCCCCCOc1cc(ccc1F)-c1nc(ncc1F)N2`, the values for the half-life in data set [9] and in data set [10] were 10.7 min and 6.8 min, respectively. For the same molecule, the IC50 in data set [3] turned out to be 240 nM; in the data set with NCI-H1975 [6] it was 180 nM. This molecule also came in with a solubility at 2 h in data set [8] of 17 µg/mL (≈ 30.7 µM).
